According to ChEMBL document CHEMBL1201862, “PubChem BioAssay data set” (2004):
Calls of active or inactive are those of the source.

Tests used:
[1] = reduction of Shn3 3'UTR-driven luciferase in osteoblasts – cell-based, Clone20 osteoblasts, firefly luciferase, cherry-picked, dose response (AID 624132); format: functional;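 note: firefly luciferase luminescence from reporter carrying the Shn3 3'UTR in osteoblasts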
[2] = loss of viability in HepG2 cells – cell-based, CellTiter-Glo, cherry-picked, cytotoxicity control for Shn3 inhibitor project, dose response (AID 624134); format: functional
[3] = non-specific 3'UTR reporter inhibition in Clone20-Shn3RL – cell-based, Renilla luciferase, cherry-picked, counter-screen for Shn3 inhibitor project, dose response (AID 624133); format: functional
[4] = Shn3 3'UTR reporter signal decrease – cell-based, Clone20 osteoblasts, firefly luciferase, cherry-pick, set 2, Schnurri-3 inhibitor project, dose response (AID 720490); format: functional;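 note: actives lower the luminescence signal as inhibitors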
HEK293 = test: viability loss in HEK293T cells – cell-based, ATP luminescence, cherry-pick samples, cytotoxicity control, dose response (AID 687005); format: functional; conditions: Homo sapiens;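 note: cells exposed to compound for 48 hours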
[5] = HEK293 Cytotoxicity Assay Measured in Cell-Based System Using Plate Reader - 7071-01_Inhibitor_Dose_CherryPick_Activity_Set2.; format: functional
[6] = Late-stage results from the probe development effort to identify antagonists of arginine vasopressin receptor 1a (AVPR1a): fluorescence-based cell-based dose response AVPR1a inhibition assay.; format: functional
Vasopressin V1b receptor = Vasopressin V1b receptor (Homo sapiens, UniProt P47901); test: Late-stage results from the probe development effort to identify antagonists of arginine vasopressin receptor 1a (AVPR1a): fluorescence-based cell-based dose response AVPR1b inhibition counterscreen assay.; format: functional
Vasopressin V1b receptor, sequence (P47901 whole entry): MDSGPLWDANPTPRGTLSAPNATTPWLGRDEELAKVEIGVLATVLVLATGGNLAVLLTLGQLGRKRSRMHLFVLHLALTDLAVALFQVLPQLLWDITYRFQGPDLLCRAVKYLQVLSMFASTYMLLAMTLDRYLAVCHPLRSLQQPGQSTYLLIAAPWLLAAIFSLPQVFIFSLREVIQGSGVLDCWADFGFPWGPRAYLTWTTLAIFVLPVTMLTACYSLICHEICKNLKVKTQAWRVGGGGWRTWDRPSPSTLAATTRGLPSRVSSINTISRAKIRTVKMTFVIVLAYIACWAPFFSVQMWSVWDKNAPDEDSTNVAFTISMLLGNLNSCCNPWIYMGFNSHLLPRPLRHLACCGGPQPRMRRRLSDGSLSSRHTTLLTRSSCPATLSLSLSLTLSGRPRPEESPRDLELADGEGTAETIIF

Vasopressin V2 receptor = Vasopressin V2 receptor (Homo sapiens, UniProt P30518); test: Late-stage results from the probe development effort to identify antagonists of arginine vasopressin receptor 1a (AVPR1a): fluorescence-based cell-based dose response AVPR2 inhibition counterscreen assay.; format: functional
Vasopressin V2 receptor, sequence (P30518 whole entry): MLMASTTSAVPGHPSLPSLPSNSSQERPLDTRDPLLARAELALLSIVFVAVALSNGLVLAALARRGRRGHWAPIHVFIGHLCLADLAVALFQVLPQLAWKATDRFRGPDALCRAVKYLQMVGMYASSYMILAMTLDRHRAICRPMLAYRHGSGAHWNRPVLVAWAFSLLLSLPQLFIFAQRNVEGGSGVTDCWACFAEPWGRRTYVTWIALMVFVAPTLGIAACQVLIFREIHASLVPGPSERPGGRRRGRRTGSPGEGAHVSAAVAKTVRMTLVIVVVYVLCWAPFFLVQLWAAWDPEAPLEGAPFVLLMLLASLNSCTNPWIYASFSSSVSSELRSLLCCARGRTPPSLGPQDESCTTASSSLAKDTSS

[7] = Late-stage results from the probe development effort to identify antagonists of arginine vasopressin receptor 1a (AVPR1a): fluorescence-based cell-based dose response OXTR inhibition counterscreen assay.; format: functional
[8] = A2780 cell killing – plate reader, dry powder samples, cytotoxicity control, dose response (AID 743046); format: functional, cell-based
[9] = IGROV1 cell killing – plate reader, dry powder samples, PAX8 inhibitor project, dose response (AID 743043); format: functional, cell-based; conditions: IGROV-1
[10] = general cell-killing toxicity readout – plate reader, dry powder samples, cytotoxicity control for PAX8 inhibitor project, dose response (AID 743021); format: functional, cell-based
[11] = P. falciparum Dd2 growth inhibitors, dose response, SYBR Green, cherry-picked samples (AID 1159567); format: functional, cell-based
[12] = toxicity to human hepatoma HepG2 cells – cell-based, cherry-picked samples, cytotoxicity control, dose response (AID 1159577); format: functional

Compound: Cc1ccc([C@@H]2CC(=O)[C@@H]3CN(S(=O)(=O)c4ccccc4C)[C@H](c4ccc(Cl)cc4)C[C@@H]3N2S(=O)(=O)c2ccc(C)cc2)cc1
- AC50 [1]: 361 nM (active)
- AC50 [2]: 36.7 µM (active)
- AC50 [3]: 3.29 µM (active)
- AC50 [4]: 672 nM (active)

Compound: CN1C(=O)c2cc(NC(=O)NC3CCCC3)ccc2OC[C@H]2O[C@@H](CC(=O)NCC3CC3)CC[C@@H]21
- AC50 (HEK293): > 57 µM (inactive)
- AC50 [5]: > 57 µM (inactive)

Compound: Cc1noc(C)c1NC(=O)Nc1ccc2c(c1)C(=O)N([C@H](C)CO)C[C@@H](C)[C@H](CN(C)S(C)(=O)=O)OCCCC[C@@H](C)O2
- AC50 (HEK293): 16.3 µM (active)
- AC50 [5]: 16.3 µM (active)

Compound: O=C(C1CCN(c2ncccc2Cl)CC1)N(CC1CC1)c1ccc(Cl)cc1
- IC50 [6]: 23.2 nM (active)
- IC50 (Vasopressin V1b receptor): 7.1 µM (active)
- IC50 (Vasopressin V2 receptor): 11.3 µM (inactive)
- IC50 [7]: 1.7 µM (active)

Compound: Cc1ccc(-c2ccc([C@@H]3[C@@H]4CN(Cc5ccccc5F)C[C@H]3N4)cc2)cc1
- AC50 [8]: 63.6 µM (active)
- AC50 [9]: 55.4 µM (active)
- AC50 [10]: 13.2 µM (active)
- AC50 [11]: 4.05 µM (active)
- AC50 [12]: 10.3 µM (active)
